# Experimental data taken from patent publication US20250197403A1, “HETEROARYL COMPOUNDS FOR TREATMENT OF COMPLEMENT FACTOR D MEDIATED DISORDERS” (Achillion Pharmaceuticals, Inc., priority 2020, published 2025).
# Target: Human Factor D (Homo sapiens (Human), UniProt P00746)
# Assay: Human Factor D Assay
# Type: biochemical
# Details: Human Factor D 80 nM, substrate Z-L-Lys-SBzl, assay according to Example 3
# Experimental: The assay according to Example 3 was used to determine the IC50's of the compounds. Other standard factor D inhibition assays are also available.
# Human Factor D (purified from human serum, Complement Technology, Inc.) at 80 nM final concentration is incubated with test compound at various concentrations for 5 min at room temperature in 50 mM Tris, 1M NaCl, pH 7.5. A synthetic substrate Z-L-Lys-SBzl and DTNB (Ellman's reagent) are added to final concentrations of 100 μM each. Absorbance at 405 nm (A405) is recorded at 30 second intervals for 30 min using a microplate spectrophotometer. IC50 values are calculated by nonlinear regression of complement Factor D reaction rates as a function of test compound concentration.
# Chain of Human Factor D (P00746 26-253): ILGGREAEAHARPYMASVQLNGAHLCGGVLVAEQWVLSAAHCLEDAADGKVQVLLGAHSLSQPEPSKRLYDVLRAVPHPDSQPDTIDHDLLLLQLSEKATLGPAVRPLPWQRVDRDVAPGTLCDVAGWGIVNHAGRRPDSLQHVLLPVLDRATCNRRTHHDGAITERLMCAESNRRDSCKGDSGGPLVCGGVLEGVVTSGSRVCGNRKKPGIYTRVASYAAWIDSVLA
row,SMILES,IC50
1,"CC(=O)c1cn(CC(=O)N2[C@H](C(=O)Nc3nc(Br)ccc3Cl)C[C@@]3(C)C[C@@H]23)c2c(C)cc(-c3cnc4cc(C)nn4c3)cc12 [Compound 47, (1R,3S,5R)-2-(2-(3-acetyl-7-methyl-5-(2-methylpyr-azolo[1,5-a]pyrimidin-6-yl)-1H-indol-1-yl)acetyl)-N-(6-bromo-3-chloropyr-idin-2-yl)-5-methyl-2-aza-bicyclo[3.1.0]hexane-3-carboxamide]",< 1 µM
2,"CC(=O)c1cn(CC(=O)N2[C@H](C(=O)Nc3nc(C(F)(F)F)ccc3C)C[C@@]3(C)C[C@@H]23)c2c(C)cc(-c3ccc4nc(C#N)nn4c3)cc12 [Compound 22, (1R,3S,5R)-2-(2-(3-acetyl-5-(2-cyano-[1,2,4]triazolo [1,5-a]pyridin-6-yl)-7-methyl-1H-indol-1-yl)acet-yl)-5-methyl-N-(3-methyl-6-(trifluoromethyl)pyridin-2-yl)-2-azabicyclo[3.1.0] hexane-3-carboxamide]",< 1 µM
3,"CC(=O)c1cn(CC(=O)N2[C@H](C(=O)Nc3nc(C(F)(F)F)ccc3Cl)C[C@@]3(C)C[C@@H]23)c2c(C)nc(-c3cnc4cc(C)nn4c3)cc12 [Compound 24, (1R,3S,5R)-2-(2-(3-acetyl-7-methyl-5-(2-methylpyr-azolo[1,5-a]pyrimidin-6-yl)-1H-pyrrolo[2,3-c]pyr-idin-1-yl)acetyl)-N-(3-chloro-6-(trifluoromethyl)-pyridin-2-yl)-5-methyl-2-azabicyclo[3.1.0]hexane-3-carboxamide]",< 1 µM
4,"CC(=O)c1cn(CC(=O)N2C[C@@](F)(CF)C[C@H]2C(=O)Nc2nc(C(F)(F)F)ccc2C)c2c(C)cc(-c3cnc4cc(C)nn4c3)cc12 [Compound 10, (2S,4R)-1-(2-(3-acetyl-7-methyl-5-(2-methylpyr-azolo[1,5-a]pyrimidin-6-yl)-1H-indol-1-yl)acetyl)-4-fluoro-4-(fluoromethyl)-N-(3-methyl-6-(trifluoro-methyl)pyridin-2-yl)pyr-rolidine-2-carboxamide]",< 1 µM
5,"CC(=O)c1cn(CC(=O)N2C[C@H](F)C[C@H]2C(=O)Nc2ccn(CC(F)(F)F)n2)c2ccc(-c3cnc4cc(C)nn4c3)cc12 [Compound 67, (2S,4R)-1-(2-(3-acetyl-5-(2-methylpyrazolo[1,5-a]pyrimidin-6-yl)-1H-indol-1-yl)acetyl)-4-fluoro-N-(1-(2,2,2-trifluoroethyl)-1H-pyrazol-3-yl)pyrrolidine-2-carboxamide]",< 1 µM
6,"CC(=O)c1cn(CC(=O)N2[C@H](C(=O)Nc3nc(Br)cc(F)c3C)C[C@@]3(C)C[C@@H]23)c2c(C)cc(-c3cnc(C)nc3)cc12 [Compound 15, (1R,3S,5R)-2-(2-(3-acetyl-7-methyl-5-(2-methylpyr-imidin-5-yl)-1H-indol-1-yl)acetyl)-N-(6-bromo-4-fluoro-3-methylpyridin-2-yl)-5-methyl-2-azabicyclo [3.1.0]hexane-3-carbox-amide]",< 1 µM
7,"CC(=O)c1cn(CC(=O)N2[C@H](C(=O)Nc3nc(C(F)(F)F)ccc3C#N)C[C@@]3(C)C[C@@H]23)c2c(C)nc(-c3cnc4cc(C)nn4c3)cc12 [Compound 23, (1R,3S,5R)-2-(2-(3-acetyl-7-methyl-5-(2-methylpyr-azolo[1,5-a]pyrimidin-6-yl)-1H-pyrrolo[2,3-c]pyr-idin-1-yl)acetyl)-N-(3-cyano-6-(trifluoromethyl)-pyridin-2-yl)-5-methyl-2-azabicyclo[3.1.0]hexane-3-carboxamide]",< 1 µM
8,"COCc1ccc(C(F)(F)F)nc1NC(=O)[C@@H]1C[C@@]2(C)C[C@H]2N1C(=O)Cn1cc(C(C)=O)c2cc(-c3cnc(C)nc3)nc(C)c21 [Compound 41, (1R,3S,5R)-2-(2-(3-acetyl-7-methyl-5-(2-methylpyr-imidin-5-yl)-1H-pyrrolo [2,3-c]pyridin-1-yl)acetyl)-N-(3-(methoxymethyl)-6-(trifluoromethyl)pyridin-2-yl)-5-methyl-2-azabicyclo [3.1.0]hexane-3-carbox-amide]",< 1 µM
9,"CC(=O)c1cn(CC(=O)N2C[C@@](F)(CF)C[C@H]2C(=O)Nc2nc(C(F)(F)F)ccc2C)c2c(C)cc(-c3cnc(C)nc3)cc12 [Compound 61, (2S,4R)-1-(2-(3-acetyl-7-methyl-5-(2-methylpyrim-idin-5-yl)-1H-indol-1-yl)-acetyl)-4-fluoro-4-(fluoro-methyl)-N-(3-methyl-6-(trifluoromethyl)pyridin-2-yl)pyrrolidine-2-carbox-amide]",< 1 µM
10,"CC(=O)c1cn(CC(=O)N2[C@H](C(=O)Nc3cncc(C(F)(F)F)n3)C[C@@]3(C)C[C@@H]23)c2c(C)cc(-c3cnc(C)nc3)cc12 [Compound 45, (1R,3S,5R)-2-(2-(3-acetyl-7-methyl-5-(2-methylpyr-imidin-5-yl)-1H-indol-1-yl)acetyl)-5-methyl-N-(6-(trifluoromethyl)pyrazin-2-yl)-2-azabicyclo[3.1.0] hexane-3-carboxamide]",< 1 µM
11,"CC(=O)c1cn(CC(=O)N2[C@H](C(=O)Nc3nc(C(F)(F)F)cnc3C)C[C@@]3(C)C[C@@H]23)c2c(C)cc(-c3cnc(C)nc3)cc12 [Compound 59, (1R,3S,5R)-2-(2-(3-acetyl-7-methyl-5-(2-methylpyr-imidin-5-yl)-1H-indol-1-yl)acetyl)-5-methyl-N-(3-methyl-6-(trifluorometh-yl)pyrazin-2-yl)-2-azabi-cyclo[3.1.0]hexane-3-car-boxamide]",1 to 10 µM
12,"CC(=O)c1cn(CC(=O)N2[C@H](C(=O)Nc3nc(C(F)(F)F)c(F)cc3C)C[C@@]3(C)C[C@@H]23)c2c(C)cc(-c3cnc(C)nc3)cc12 [Compound 71, (1R,3S,5R)-2-(2-(3-acetyl-7-methyl-5-(2-methylpyr-imidin-5-yl)-1H-indol-1-yl)acetyl)-N-(5-fluoro-3-methyl-6-(trifluorometh-yl)pyridin-2-yl)-5-methyl-2-azabicyclo[3.1.0]hexane-3-carboxamide]",< 1 µM
13,"CC(=O)c1cn(CC(=O)N2C[C@@](F)(CF)C[C@H]2C(=O)Nc2nc(C(F)(F)F)ccc2C)c2c(C)nc(-c3cnc4cc(C)nn4c3)cc12 [Compound 25, (2S,4R)-1-(2-(3-acetyl-7-methyl-5-(2-methylpyr-azolo[1,5-a]pyrimidin-6-yl)-1H-pyrrolo[2,3-c]pyr-idin-1-yl)acetyl)-4-fluoro-4-(fluoromethyl)-N-(3-methyl-6-(trifluorometh-yl)pyridin-2-yl)pyrroli-dine-2-carboxamide]",< 1 µM
14,"CC(=O)c1cn(CC(=O)N2[C@H](C(=O)Nc3nc(Br)ccc3C)C[C@@]3(C)C[C@@H]23)c2c(C)c(F)c(-c3cnc4cc(C)nn4c3)cc12 [Compound 50, (1R,3S,5R)-2-(2-(3-acetyl-6-fluoro-7-methyl-5-(2-methylpyrazolo[1,5-a]pyr-imidin-6-yl)-1H-indol-1-yl)acetyl)-N-(6-bromo-3-methylpyridin-2-yl)-5-methyl-2-zabicyclo[3.1.0] hexane-3-carboxamide]",< 1 µM
15,"CC(=O)c1cn(CC(=O)N2[C@H](C(=O)N[C@@H](C)C(F)=C(C)C)C[C@@]3(C)C[C@@H]23)c2c(C)nc(-c3cnc4cc(C)nn4c3)cc12 [Compound 32, (1R,3S,5R)-2-(2-(3-acetyl-7-methyl-5-(2-methylpyr-azolo[1,5-a]pyrimidin-6-yl)-1H-pyrrolo[2,3-c]pyr-idin-1-yl)acetyl)-N-((S)-3-fluoro-4-methylpent-3-en-2-yl)-5-methyl-2-azabi-cyclo[3.1.0]hexane-3-car-boxamide]",< 1 µM
